Assay results from EP4722363A1, “RNAI AGENT FOR INHIBITING ANGPTL3 EXPRESSION AND USE THEREOF” (YUN HO BIO CO., LTD, priority 2023, dated 2024).

How the values were obtained:
ANGPTL3 Protein [1] = assay: PHH free uptake, inhibition of ANGPTL3, ELISA of supernatant; assay type: cell-based; conditions: primary human hepatocytes, 72 hours
Procedure: PHH cells were thawed and adjusted to a density of 6×10^5 cells/mL. Then, 10 µL of the compound from the dilution plate was added to the cell culture plate, resulting in final compound concentrations of 100, 40, 12.5, 5, and 2 nM. The cells were seeded into a 96-well plate at a density of 54,000 cells per well (90 µL/well), with a final culture volume of 100 µL per well. The cells were cultured in a 5% CO2 incubator at 37°C for 72 hours.
(§1) The supernatant from the PHH and PCH cultures from the previous steps was collected, transferred to a new 96-well V-bottom plate, and centrifuged. Human Angiopoietin-like 3 protein (hANGPTL3 protein; DANL30) ELISA test was performed according to the instructions of HANGPTL 3 protein Kit.
(§2) Data Analysis: Four Parameter Logistic method. This method constructs a standard curve by plotting, with the y-axis as the average absorbance of the standards and the x-axis as the concentration, drawing a best-fit curve through the points on the graph. The OD value of the log concentration of the sample's HANGPTL3 protein is determined against the best-fit line of the log concentration by regression analysis. [formula]
(§3) Sequences with good activity in Table 8 were evaluated for in vitro inhibitory activity against ANGPTL3 Protein in primary human hepatocytes (PHH) and primary cynomolgus monkey hepatocytes (PCH). Table 10. In Vitro Inhibitory Activity of MCPP-siRNAs against ANGPTL3 mRNA in PHH Cell Line

ANGPTL3 Protein [2] = assay: PCH free uptake, inhibition of ANGPTL3, ELISA of supernatant; assay type: cell-based; conditions: primary cynomolgus monkey hepatocytes, 72 hours
Procedure: PCH cells were resuscitated using 10% FBS InvitroGRO™ HT Medium, and subsequently, the cell density was adjusted to 3×10^5 cells/mL using 10% FBS InvitroGRO™ CP Medium. Then, 10 µL of the compound from the dilution plate was added to the cell culture plate, resulting in final compound concentrations of 25, 5, and 1 nM. The cells were seeded into a 96-well plate at a density of 27,000 cells per well (90 µL/well), with a final culture volume of 100 µL per well. The cells were cultured in a 5% CO2 incubator at 37 °C for 72 hours.
as §1, §2, §3

ANGPTL3 [3] = assay: In vivo efficacy of ANGPTL3 GalNAc-siRNAs in hANGPTL3 humanized mice; conditions: 3 mg/kg subcutaneous on day 0; days 7, 14, 21, 28; normalized to day -1; compared to the control; Fig. 1
Procedure: To evaluate the in vivo efficacy of siRNA against ANGPTL3 in mice, female ANGPTL3 humanized mice (purchased from Shanghai Model Organisms Center, Inc.) were used for in vivo efficacy testing. Mice were randomly divided into 5 groups, with 5 mice per group: G1, Control (PBS) negative control group; G2, 2002-034-001 (3 mg/kg) treatment group; G3, 2008-010-001 (3 mg/kg) treatment group; G4, 2008-019-001 (3 mg/kg) treatment group; and G5, 2008-019-002 (3 mg/kg) treatment group.
On days -7 and -1, pre-dose plasma samples were obtained after a 4-hour fast. The above siRNA conjugates were diluted with saline and administered subcutaneously to the mice according to body weight on day 0. Plasma was collected after a 4-hour fast on days 7, 14, 21, and 28, respectively. The ANGPTL3 protein level in plasma was detected by ELISA (R&D Systems). Plasma triglycerides (TG), total cholesterol (CHO), high-density lipoprotein cholesterol (HDL-c), low-density lipoprotein cholesterol (LDL-c), alanine aminotransferase (ALT), and aspartate aminotransferase (AST) were tested by Shanghai Bikai Keyi Biotechnology Co., Ltd.
To evaluate the in vivo efficacy of the siRNAs against ANGPTL3 in mice, female ANGPTL3 humanized mice (purchased from Shanghai Model Organisms Center, Inc.) were used for the efficacy study. The mice were randomly allocated into five groups (n=5 per group) as follows: • G1: Control (PBS) negative control group; • G2: 2002-034-001 (3 mg/kg) treatment group; • G3: 2008-010-001 (3 mg/kg) treatment group; • G4: 2008-019-001 (3 mg/kg) treatment group; • G5: 2008-019-002 (3 mg/kg) treatment group.
The day of the first administration was designated as day 0. Accordingly, the day before administration was designated as day -1, and the day after administration as day 1.
On day -7, all mice were fasted for 4 hours, and mandibular blood was collected to obtain plasma for hANGPTL3 protein detection. […]
On day -1, pre-dose plasma samples were obtained after a 4-hour fast. […] The ANGPTL3 protein level in plasma was detected by ELISA (R&D Systems). […]

ANGPTL3 [4] = assay: In vivo efficacy of ANGPTL3 GalNAc-siRNA in HFD-induced hyperlipidemic cynomolgus monkeys; conditions: single subcutaneous injection, normalized to pre-treatment, Fig. 2
Procedure: To evaluate the in vivo activity of siRNA against ANGPTL3, 6 HFD-induced hyperlipidemic cynomolgus monkeys were used for the experiment. Pre-dose serum samples were obtained after a 4-hour fast on days -7 and -14. The siRNA conjugate was diluted with saline and administered subcutaneously according to the experimental design on day 0. Blank saline was used as a negative control. Plasma was collected after a 4-hour fast on days 0, 7, 14, 28, 42, 49, and 56. Serum triglycerides were detected using an automatic biochemical analyzer.
The ANGPTL3 protein levels and triglyceride levels for each animal were normalized. For normalization, at a given time point, the ANGPTL3 protein and triglyceride levels of each animal were divided by the pre-treatment expression level of that animal (the average of the pre-experiment samples for that group) to determine the change in "normalization to pre-treatment".

## 2008-018-001: GalNAc-conjugated modified ANGPTL3 siRNA, sense SEQ ID NO 41, antisense SEQ ID NO 27 (sense GAGAAGAACUACAUAUAAA; antisense UUUAUAUGUAGUUCUUCUCAG; GalNAc conjugated, chemically modified, pattern not given here) [Duplex 2008-018-001]
ANGPTL3 Protein [1]
  IC50: 2.34 nM
ANGPTL3 Protein [2]; 1nM
  Average Inhibition in PCH %: 59.56%
ANGPTL3 Protein [2]; 5nM
  Average Inhibition in PCH %: 73.29%
ANGPTL3 Protein [2]; 25nM
  Average Inhibition in PCH %: 76.55%

## 2008-010-001: GalNAc-conjugated modified ANGPTL3 siRNA, sense SEQ ID NO 40 (3'-YHZY12001), antisense SEQ ID NO 27 (sense GAGAAGAACUACAUAUAAA; antisense UUUAUAUGUAGUUCUUCUCAG; GalNAc conjugate YHZY12001 at sense 3', chemistry not fully specified) [Duplex 2008-010-001]
ANGPTL3 Protein [1]
  IC50: 0.81 nM
ANGPTL3 Protein [2]; 1nM
  Average Inhibition in PCH %: 62.75%
ANGPTL3 Protein [2]; 5nM
  Average Inhibition in PCH %: 74.73%
ANGPTL3 Protein [2]; 25nM
  Average Inhibition in PCH %: 78.39%
ANGPTL3 [3]
  level of ANGPTL3 protein in the plasma: significantly reduced
  level of total cholesterol (CHO) in the plasma: significantly reduced
  level of triglycerides (TG) in the plasma: significantly reduced
ANGPTL3 [4]
  serum ANGPTL3 protein level: significantly inhibited
ANGPTL3 [4]; serum
  triglyceride level: significantly reduced

## ARO-05488-003-NAG37: GalNAc-conjugated comparator ANGPTL3 siRNA, sense SEQ ID NO 44, antisense SEQ ID NO 45 (sense GCUCAACAUAUUUGAUCAGUA; antisense UACUGAUCAAAUAUGUUGAGC; GalNAc (NAG37) conjugate, chemistry not fully specified) [reference compound]
ANGPTL3 Protein [1]
  IC50: 7.19 nM
ANGPTL3 Protein [2]; 1nM
  Average Inhibition in PCH %: 28.48%
ANGPTL3 Protein [2]; 5nM
  Average Inhibition in PCH %: 49.83%
ANGPTL3 Protein [2]; 25nM
  Average Inhibition in PCH %: 60.00%

## 2008-011-001: GalNAc-conjugated modified ANGPTL3 siRNA, sense SEQ ID NO 40, antisense SEQ ID NO 28 (sense GAGAAGAACUACAUAUAAA; antisense UUUAUAUGUAGUUCUUCUCAG; GalNAc conjugated, chemically modified, pattern not given here) [Duplex 2008-011-001]
ANGPTL3 Protein [1]
  IC50: 2.6 nM
ANGPTL3 Protein [2]; 1nM
  Average Inhibition in PCH %: 57.51%
ANGPTL3 Protein [2]; 5nM
  Average Inhibition in PCH %: 72.91%
ANGPTL3 Protein [2]; 25nM
  Average Inhibition in PCH %: 77.81%

## 2008-019-002: GalNAc-conjugated modified ANGPTL3 siRNA, sense SEQ ID NO 36, antisense SEQ ID NO 28 (sense GAGAAGAACUACAUAUAAA; antisense UUUAUAUGUAGUUCUUCUCAG; GalNAc conjugated, chemically modified, pattern not given here) [Duplex 2008-019-002]
ANGPTL3 Protein [1]
  IC50: 1.11 nM
ANGPTL3 Protein [2]; 1nM
  Average Inhibition in PCH %: 52.37%
ANGPTL3 Protein [2]; 5nM
  Average Inhibition in PCH %: 70.28%
ANGPTL3 Protein [2]; 25nM
  Average Inhibition in PCH %: 73.74%

## 2002-033-001: GalNAc-conjugated modified ANGPTL3 siRNA, sense SEQ ID NO 38, antisense SEQ ID NO 12 (sense CAUAGUGAAGCAAUCUAAU; antisense AUUAGAUUGCUUCACUAUGGA; GalNAc conjugated, chemically modified, pattern not given here) [Duplex 2002-033-001]
ANGPTL3 Protein [1]
  IC50: 1.08 nM
ANGPTL3 Protein [2]; 1nM
  Average Inhibition in PCH %: 53.11%
ANGPTL3 Protein [2]; 5nM
  Average Inhibition in PCH %: 67.45%
ANGPTL3 Protein [2]; 25nM
  Average Inhibition in PCH %: 68.80%

## 2002-034-002: GalNAc-conjugated modified ANGPTL3 siRNA, sense SEQ ID NO 33, antisense SEQ ID NO 13 (sense CAUAGUGAAGCAAUCUAAU; antisense AUUAGAUUGCUUCACUAUGGA; GalNAc conjugated, chemically modified, pattern not given here) [Duplex 2002-034-002]
ANGPTL3 Protein [1]
  IC50: 1.3 nM
ANGPTL3 Protein [2]; 1nM
  Average Inhibition in PCH %: 45.42%
ANGPTL3 Protein [2]; 5nM
  Average Inhibition in PCH %: 60.18%
ANGPTL3 Protein [2]; 25nM
  Average Inhibition in PCH %: 63.01%

## 2008-011-002: GalNAc-conjugated modified ANGPTL3 siRNA, sense SEQ ID NO 35, antisense SEQ ID NO 28 (sense GAGAAGAACUACAUAUAAA; antisense UUUAUAUGUAGUUCUUCUCAG; GalNAc conjugated, chemically modified, pattern not given here) [Duplex 2008-011-002]
ANGPTL3 Protein [1]
  IC50: 0.75 nM
ANGPTL3 Protein [2]; 1nM
  Average Inhibition in PCH %: 54.65%
ANGPTL3 Protein [2]; 5nM
  Average Inhibition in PCH %: 71.25%
ANGPTL3 Protein [2]; 25nM
  Average Inhibition in PCH %: 76.57%

## 2008-035-001: GalNAc-conjugated modified ANGPTL3 siRNA, sense SEQ ID NO 42, antisense SEQ ID NO 28 (sense GAGAAGAACUACAUAUAAA; antisense UUUAUAUGUAGUUCUUCUCAG; GalNAc conjugated, chemically modified, pattern not given here) [Duplex 2008-035-001]
ANGPTL3 Protein [1]
  IC50: 2.34 nM
ANGPTL3 Protein [2]; 1nM
  Average Inhibition in PCH %: 46.03%
ANGPTL3 Protein [2]; 5nM
  Average Inhibition in PCH %: 63.23%
ANGPTL3 Protein [2]; 25nM
  Average Inhibition in PCH %: 68.96%
